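Where inhibition never reached the appropriate level, the endpoint shown equals the highest concentration tested. Otherwise, values were interpolated linearly from a five-concentration, 48-hour dose response in 96-well plates. Abbreviation: GI50, concentration required for 50% inhibition of growth.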 Active and inactive are the calls of the source. Cut-off read from the data, not from the text of the source: active = GI50 up to about 1.1 µM and inactive = higher.
Legend:
Experiment in all cases: NCI tumour cell line growth inhibition, 48 h
A498 = tested on: A498
KM-20L2 = tested on: KM-20L2
NCI-H522 = tested on: NCI-H522
786-0 = tested on: 786-0
EKVX = tested on: EKVX
NCI-H460 = tested on: NCI-H460
RPMI-8226 = tested on: RPMI-8226
IGROV-1 = tested on: IGROV-1
NCI-H226 = tested on: NCI-H226
M19-MEL = tested on: M19-MEL
OVCAR-5 = tested on: OVCAR-5
SK-OV-3 = tested on: SK-OV-3
A549 = tested on: A549
Malme-3M = tested on: Malme-3M
HOP-92 = tested on: HOP-92
CCRF-CEM = tested on: CCRF-CEM
COLO 205 = tested on: COLO 205
HT-29 = tested on: HT-29
KM12 = tested on: KM12
LOX IMVI = tested on: LOX IMVI
U-251 = tested on: U-251
SNB-19 = tested on: SNB-19
RXF 393 = tested on: RXF 393
LXFL 529 = tested on: LXFL 529
ACHN = tested on: ACHN
SK-MEL-28 = tested on: SK-MEL-28
MOLT-4 = tested on: MOLT-4
UACC-62 = tested on: UACC-62
HCT-15 = tested on: HCT-15
SF-539 = tested on: SF-539
NCI-H23 = tested on: NCI-H23
OVCAR-3 = tested on: OVCAR-3
SF-268 = tested on: SF-268
UO-31 = tested on: UO-31
SNB-75 = tested on: SNB-75
UACC-257 = tested on: UACC-257
OVCAR-8 = tested on: OVCAR-8
DMS-273 = tested on: DMS-273
SW-620 = tested on: SW-620
SK-MEL-5 = tested on: SK-MEL-5
SF-295 = tested on: SF-295
M14 = tested on: M14
DLD-1 = tested on: DLD-1
SNB-78 = tested on: SNB-78
CAKI-1 = tested on: CAKI-1
OVCAR-4 = tested on: OVCAR-4
DMS-114 = tested on: DMS-114
K562 = tested on: K562
SN12C = tested on: SN12C
HCT-116 = tested on: HCT-116
HCC 2998 = tested on: HCC 2998
HOP-62 = tested on: HOP-62
RXF 631 = tested on: RXF 631
TK-10 = tested on: TK-10
SK-MEL-2 = tested on: SK-MEL-2
SR = tested on: SR
HL-60 = tested on: HL-60
HOP-18 = tested on: HOP-18

Structure (SMILES): CCCN(CCCC(NC(C)=O)C(=O)NCc1ccccc1)C(=O)NC (stereo not given)
- GI50 (A498): > 100 µM (inactive)
- GI50 (KM-20L2): > 100 µM (inactive)
- GI50 (NCI-H522): > 100 µM (inactive)
- GI50 (786-0): > 100 µM (inactive)
- GI50 (EKVX): > 100 µM (inactive)
- GI50 (NCI-H460): > 100 µM (inactive)
- GI50 (RPMI-8226): > 100 µM (inactive)
- GI50 (IGROV-1): > 100 µM (inactive)
- GI50 (NCI-H226): > 100 µM (inactive)
- GI50 (M19-MEL): > 100 µM (inactive)
- GI50 (OVCAR-5): > 100 µM (inactive)
- GI50 (SK-OV-3): > 100 µM (inactive)
- GI50 (A549): > 100 µM (inactive)
- GI50 (Malme-3M): > 100 µM (inactive)
- GI50 (HOP-92): > 100 µM (inactive)
- GI50 (CCRF-CEM): > 100 µM (inactive)
- GI50 (COLO 205): > 100 µM (inactive)
- GI50 (HT-29): > 100 µM (inactive)
- GI50 (KM12): > 100 µM (inactive)
- GI50 (LOX IMVI): > 100 µM (inactive)
- GI50 (U-251): > 100 µM (inactive)
- GI50 (SNB-19): > 100 µM (inactive)
- GI50 (RXF 393): > 100 µM (inactive)
- GI50 (LXFL 529): > 100 µM (inactive)
- GI50 (ACHN): > 100 µM (inactive)
- GI50 (SK-MEL-28): > 100 µM (inactive)
- GI50 (MOLT-4): > 100 µM (inactive)
- GI50 (UACC-62): > 100 µM (inactive)
- GI50 (HCT-15): > 100 µM
- GI50 (SF-539): > 100 µM (inactive)
- GI50 (NCI-H23): > 100 µM (inactive)
- GI50 (OVCAR-3): > 100 µM (inactive)
- GI50 (SF-268): > 100 µM (inactive)
- GI50 (UO-31): > 100 µM (inactive)
- GI50 (SNB-75): 13.7 µM (inactive)
- GI50 (UACC-257): > 100 µM (inactive)
- GI50 (OVCAR-8): > 100 µM (inactive)
- GI50 (DMS-273): > 100 µM (inactive)
- GI50 (SW-620): > 100 µM (inactive)
- GI50 (SK-MEL-5): > 100 µM (inactive)
- GI50 (SF-295): > 100 µM (inactive)
- GI50 (M14): > 100 µM (inactive)
- GI50 (DLD-1): > 100 µM (inactive)
- GI50 (SNB-78): > 100 µM (inactive)
- GI50 (CAKI-1): > 100 µM (inactive)
- GI50 (OVCAR-4): > 100 µM (inactive)
- GI50 (DMS-114): > 100 µM (inactive)
- GI50 (K562): > 100 µM (inactive)
- GI50 (SN12C): > 100 µM (inactive)
- GI50 (HCT-116): > 100 µM (inactive)
- GI50 (HCC 2998): > 100 µM (inactive)
- GI50 (HOP-62): > 100 µM (inactive)
- GI50 (RXF 631): > 100 µM (inactive)
- GI50 (TK-10): > 100 µM (inactive)
- GI50 (SK-MEL-2): > 100 µM (inactive)

Structure (SMILES): CCN(C(=N)C#N)c1ccccc1
- GI50 (A498): > 100 µM (inactive)
- GI50 (KM-20L2): > 100 µM (inactive)
- GI50 (NCI-H522): > 100 µM (inactive)
- GI50 (786-0): > 41.9 µM (inactive)
- GI50 (EKVX): > 100 µM (inactive)
- GI50 (SR): > 100 µM (inactive)
- GI50 (NCI-H460): > 63.8 µM (inactive)
- GI50 (RPMI-8226): > 100 µM (inactive)
- GI50 (IGROV-1): > 100 µM (inactive)
- GI50 (NCI-H226): > 100 µM (inactive)
- GI50 (M19-MEL): > 55.1 µM (inactive)
- GI50 (OVCAR-5): > 100 µM (inactive)
- GI50 (SK-OV-3): > 100 µM (inactive)
- GI50 (A549): > 100 µM (inactive)
- GI50 (Malme-3M): > 100 µM (inactive)
- GI50 (HOP-92): > 100 µM (inactive)
- GI50 (CCRF-CEM): > 54.5 µM (inactive)
- GI50 (COLO 205): > 95.3 µM (inactive)
- GI50 (HT-29): > 89.7 µM (inactive)
- GI50 (KM12): > 100 µM (inactive)
- GI50 (LOX IMVI): 47.2 µM (inactive)
- GI50 (U-251): 65.9 µM (inactive)
- GI50 (SNB-19): > 100 µM (inactive)
- GI50 (RXF 393): > 100 µM (inactive)
- GI50 (LXFL 529): > 100 µM (inactive)
- GI50 (ACHN): > 100 µM (inactive)
- GI50 (SK-MEL-28): > 100 µM (inactive)
- GI50 (MOLT-4): > 100 µM (inactive)
- GI50 (UACC-62): > 72.3 µM (inactive)
- GI50 (HCT-15): > 45.4 µM
- GI50 (SF-539): 13.6 µM (inactive)
- GI50 (NCI-H23): > 100 µM (inactive)
- GI50 (OVCAR-3): > 100 µM (inactive)
- GI50 (SF-268): > 100 µM (inactive)
- GI50 (UO-31): > 100 µM (inactive)
- GI50 (SNB-75): > 100 µM (inactive)
- GI50 (UACC-257): > 59.2 µM (inactive)
- GI50 (OVCAR-8): > 100 µM (inactive)
- GI50 (DMS-273): > 42.5 µM (inactive)
- GI50 (SW-620): 20.5 µM (inactive)
- GI50 (SK-MEL-5): > 100 µM (inactive)
- GI50 (SF-295): > 100 µM (inactive)
- GI50 (M14): > 100 µM (inactive)
- GI50 (DLD-1): > 40.7 µM (inactive)
- GI50 (HL-60): > 46.9 µM (inactive)
- GI50 (CAKI-1): > 100 µM (inactive)
- GI50 (OVCAR-4): > 100 µM (inactive)
- GI50 (DMS-114): > 54.8 µM (inactive)
- GI50 (K562): > 75.5 µM (inactive)
- GI50 (SN12C): > 100 µM (inactive)
- GI50 (HCT-116): > 60.4 µM (inactive)
- GI50 (HCC 2998): > 100 µM (inactive)
- GI50 (HOP-62): > 100 µM (inactive)
- GI50 (HOP-18): > 100 µM (inactive)
- GI50 (RXF 631): > 100 µM (inactive)
- GI50 (TK-10): > 100 µM (inactive)
- GI50 (SK-MEL-2): > 100 µM (inactive)

Structure (SMILES): CCCCCCCC(=O)OC(COC(=O)Cc1ccccc1)COC(=O)C(C)(C)C (stereo not given)
- GI50 (A498): > 100 µM (inactive)
- GI50 (KM-20L2): > 100 µM (inactive)
- GI50 (786-0): > 100 µM (inactive)
- GI50 (SR): 64 µM (inactive)
- GI50 (NCI-H460): > 100 µM (inactive)
- GI50 (RPMI-8226): > 100 µM (inactive)
- GI50 (IGROV-1): > 100 µM (inactive)
- GI50 (NCI-H226): > 100 µM (inactive)
- GI50 (M19-MEL): > 100 µM (inactive)
- GI50 (OVCAR-5): > 100 µM (inactive)
- GI50 (SK-OV-3): > 100 µM (inactive)
- GI50 (A549): > 100 µM (inactive)
- GI50 (Malme-3M): > 100 µM (inactive)
- GI50 (HOP-92): 32.8 µM (inactive)
- GI50 (CCRF-CEM): > 100 µM (inactive)
- GI50 (COLO 205): 46.3 µM (inactive)
- GI50 (LOX IMVI): > 100 µM (inactive)
- GI50 (U-251): > 100 µM (inactive)
- GI50 (SNB-19): > 100 µM (inactive)
- GI50 (LXFL 529): 95.3 µM (inactive)
- GI50 (ACHN): > 100 µM (inactive)
- GI50 (SK-MEL-28): > 100 µM (inactive)
- GI50 (MOLT-4): 71.9 µM (inactive)
- GI50 (UACC-62): > 100 µM (inactive)
- GI50 (HCT-15): > 100 µM
- GI50 (NCI-H23): > 100 µM (inactive)
- GI50 (OVCAR-3): > 100 µM (inactive)
- GI50 (SF-268): > 100 µM (inactive)
- GI50 (UO-31): > 100 µM (inactive)
- GI50 (OVCAR-8): > 100 µM (inactive)
- GI50 (DMS-273): > 100 µM (inactive)
- GI50 (SW-620): > 100 µM (inactive)
- GI50 (SK-MEL-5): 74 µM (inactive)
- GI50 (SF-295): > 100 µM (inactive)
- GI50 (M14): > 100 µM (inactive)
- GI50 (DLD-1): > 100 µM (inactive)
- GI50 (HL-60): 51.6 µM (inactive)
- GI50 (CAKI-1): > 100 µM (inactive)
- GI50 (OVCAR-4): > 100 µM (inactive)
- GI50 (DMS-114): > 100 µM (inactive)
- GI50 (K562): 52.4 µM (inactive)
- GI50 (SN12C): > 100 µM (inactive)
- GI50 (HCT-116): > 100 µM (inactive)
- GI50 (HCC 2998): > 100 µM (inactive)
- GI50 (HOP-62): > 100 µM (inactive)
- GI50 (HOP-18): > 100 µM (inactive)
- GI50 (RXF 631): > 100 µM (inactive)
- GI50 (TK-10): > 100 µM (inactive)
